Measurements: patent publication US8871753B2, “Macrocyclic compounds and their use as kinase inhibitors” (Incyte Corporation, priority 2008, dated 2014)
Where a name gives a salt, the structure may show the parent alone.

Experiments:
Format in all cases: biochemical
[1] = target: T1, human JAK1 (a.a. 837-1142) (Homo sapiens, UniProt P23458); experiment: In vitro JAK kinase assay (HTRF, phosphorylation of a biotinylated peptide), JAK1; conditions: Table B1; read-out: JAK1 IC50
T1 construct: human JAK1 (a.a. 837-1142); His tag (N); made in house; host or cells: insect cells (baculovirus)
Outline: (§1)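 Phosphorylation of a biotinylated peptide by the JAK kinase domain, detected by HTRF with Eu-Py20 and SA-APC. ATP was 90 μM for JAK1, 30 μM for JAK2 and 3 μM for JAK3. Reactions ran 1 h at room temperature and were stopped with EDTA, followed by 40 min antibody binding.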

[2] = target: T2, human JAK2 (a.a. 828-1132) (Homo sapiens, UniProt O60674); experiment: In vitro JAK kinase assay (HTRF, phosphorylation of a biotinylated peptide), JAK2; conditions: Table B1
T2 construct: JAK2 (a.a. 828-1132); His tag (N); made in house; host or cells: insect cells (baculovirus)
Outline: as §1

[3] = target: T3, human JAK3 (a.a. 781-1124) (Homo sapiens, UniProt P52333); experiment: In vitro JAK kinase assay (HTRF, phosphorylation of a biotinylated peptide), JAK3; conditions: Table B1
T3 construct: JAK3 (a.a. 781-1124); His tag (N); made in house; host or cells: insect cells (baculovirus)
Outline: as §1

TYK2 = TYK2 (Homo sapiens, UniProt P29597); experiment: TYK2 kinase inhibition (Table A1); conditions: Table B1
[4] = target: T4, Recombinant Human Anaplastic Lymphoma Kinase (Homo sapiens, UniProt Q9UM73); experiment: ALK HTRF kinase assay; conditions: compound at a concentration of 500 nM or 1 mM (not specified); cells shown as percentage
T4 construct: purchased Invitrogen, Carlsbad, Calif
Outline: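 IC50 was obtained from a logistic fit of signal versus log inhibitor concentration, using pre- and post-transition baselines and a Hill slope. The signal reported tyrosine phosphorylation of a biotinylated peptide by recombinant human kinase, detected as Eu-to-APC energy transfer.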

T3 sequence (P52333 781-1124): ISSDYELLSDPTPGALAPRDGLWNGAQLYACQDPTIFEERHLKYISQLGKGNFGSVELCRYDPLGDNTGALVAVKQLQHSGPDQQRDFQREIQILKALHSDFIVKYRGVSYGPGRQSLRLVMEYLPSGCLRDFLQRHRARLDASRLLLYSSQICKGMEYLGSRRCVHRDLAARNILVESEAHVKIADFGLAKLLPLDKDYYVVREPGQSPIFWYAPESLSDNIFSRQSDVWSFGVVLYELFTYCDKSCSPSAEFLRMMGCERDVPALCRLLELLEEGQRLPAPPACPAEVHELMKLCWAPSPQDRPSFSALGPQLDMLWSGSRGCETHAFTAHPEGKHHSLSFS
Sequence of TYK2 (P29597 whole entry): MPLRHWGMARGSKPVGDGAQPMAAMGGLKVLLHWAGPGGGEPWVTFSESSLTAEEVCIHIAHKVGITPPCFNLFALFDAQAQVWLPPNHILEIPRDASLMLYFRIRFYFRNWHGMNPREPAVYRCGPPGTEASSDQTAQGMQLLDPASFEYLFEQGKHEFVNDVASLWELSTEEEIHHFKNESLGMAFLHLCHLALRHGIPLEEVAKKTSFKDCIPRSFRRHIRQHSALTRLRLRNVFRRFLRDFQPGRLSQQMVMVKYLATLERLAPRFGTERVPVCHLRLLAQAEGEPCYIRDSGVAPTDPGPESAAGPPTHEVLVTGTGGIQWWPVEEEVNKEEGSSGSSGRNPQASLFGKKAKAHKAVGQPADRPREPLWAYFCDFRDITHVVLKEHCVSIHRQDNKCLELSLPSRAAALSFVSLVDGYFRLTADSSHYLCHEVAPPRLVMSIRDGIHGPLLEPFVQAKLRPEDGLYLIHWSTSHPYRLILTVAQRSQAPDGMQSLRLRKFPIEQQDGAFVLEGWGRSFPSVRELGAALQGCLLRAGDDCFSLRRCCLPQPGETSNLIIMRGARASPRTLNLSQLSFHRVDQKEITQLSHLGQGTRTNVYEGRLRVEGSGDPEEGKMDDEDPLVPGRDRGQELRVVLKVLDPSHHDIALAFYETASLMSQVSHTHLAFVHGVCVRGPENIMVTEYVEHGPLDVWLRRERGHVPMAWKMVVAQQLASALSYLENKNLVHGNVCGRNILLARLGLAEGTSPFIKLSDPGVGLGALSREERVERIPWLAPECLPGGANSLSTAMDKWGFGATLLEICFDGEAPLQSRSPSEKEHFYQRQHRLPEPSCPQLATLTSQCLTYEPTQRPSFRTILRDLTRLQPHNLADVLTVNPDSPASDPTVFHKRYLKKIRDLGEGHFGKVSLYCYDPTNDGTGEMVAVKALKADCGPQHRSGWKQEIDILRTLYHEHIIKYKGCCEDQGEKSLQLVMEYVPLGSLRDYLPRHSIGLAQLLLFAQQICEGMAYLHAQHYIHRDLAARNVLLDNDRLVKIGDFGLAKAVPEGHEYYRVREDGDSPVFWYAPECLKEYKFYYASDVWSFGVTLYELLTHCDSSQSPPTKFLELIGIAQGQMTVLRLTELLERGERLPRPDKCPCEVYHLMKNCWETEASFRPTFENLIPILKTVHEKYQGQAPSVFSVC
T4 sequence (Q9UM73 19-1620): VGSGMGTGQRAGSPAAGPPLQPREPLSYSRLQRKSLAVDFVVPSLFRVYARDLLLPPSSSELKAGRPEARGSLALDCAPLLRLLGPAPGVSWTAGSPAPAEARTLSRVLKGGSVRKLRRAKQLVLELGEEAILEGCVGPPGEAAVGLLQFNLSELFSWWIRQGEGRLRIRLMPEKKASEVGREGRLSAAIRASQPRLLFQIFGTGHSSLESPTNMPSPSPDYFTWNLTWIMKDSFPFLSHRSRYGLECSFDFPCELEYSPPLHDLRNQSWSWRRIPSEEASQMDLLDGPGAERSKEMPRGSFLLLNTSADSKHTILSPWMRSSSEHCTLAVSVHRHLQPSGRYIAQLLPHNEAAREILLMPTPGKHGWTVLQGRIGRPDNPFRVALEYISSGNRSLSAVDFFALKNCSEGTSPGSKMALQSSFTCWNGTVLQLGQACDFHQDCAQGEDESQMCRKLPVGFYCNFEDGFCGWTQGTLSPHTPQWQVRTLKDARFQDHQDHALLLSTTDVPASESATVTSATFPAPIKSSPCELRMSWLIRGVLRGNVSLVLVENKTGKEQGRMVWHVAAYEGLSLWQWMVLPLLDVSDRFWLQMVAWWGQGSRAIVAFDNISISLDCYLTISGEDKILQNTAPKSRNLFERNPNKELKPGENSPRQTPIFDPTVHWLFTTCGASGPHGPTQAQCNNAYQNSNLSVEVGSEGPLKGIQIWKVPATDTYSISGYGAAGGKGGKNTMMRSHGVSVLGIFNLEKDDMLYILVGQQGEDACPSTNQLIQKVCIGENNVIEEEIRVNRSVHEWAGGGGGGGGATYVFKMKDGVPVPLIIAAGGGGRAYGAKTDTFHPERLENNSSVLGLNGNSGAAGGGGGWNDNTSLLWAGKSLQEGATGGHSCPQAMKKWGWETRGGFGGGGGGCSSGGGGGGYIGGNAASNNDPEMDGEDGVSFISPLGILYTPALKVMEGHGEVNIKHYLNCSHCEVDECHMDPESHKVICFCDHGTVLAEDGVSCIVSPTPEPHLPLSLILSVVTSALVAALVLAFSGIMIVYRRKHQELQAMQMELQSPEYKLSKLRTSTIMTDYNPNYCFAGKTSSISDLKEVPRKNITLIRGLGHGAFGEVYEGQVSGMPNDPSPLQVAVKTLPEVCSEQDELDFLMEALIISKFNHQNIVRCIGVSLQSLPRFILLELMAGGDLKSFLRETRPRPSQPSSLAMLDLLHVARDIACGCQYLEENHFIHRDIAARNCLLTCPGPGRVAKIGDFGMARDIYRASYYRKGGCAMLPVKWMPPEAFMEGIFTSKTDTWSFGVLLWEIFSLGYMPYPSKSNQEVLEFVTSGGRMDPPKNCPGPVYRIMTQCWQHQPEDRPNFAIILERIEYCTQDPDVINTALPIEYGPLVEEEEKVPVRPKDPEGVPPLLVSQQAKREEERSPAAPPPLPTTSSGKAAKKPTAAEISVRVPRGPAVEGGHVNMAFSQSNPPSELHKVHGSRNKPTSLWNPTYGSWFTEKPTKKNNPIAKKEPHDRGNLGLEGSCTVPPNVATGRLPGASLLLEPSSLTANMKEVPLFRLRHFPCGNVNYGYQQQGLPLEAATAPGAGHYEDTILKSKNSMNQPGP
T1 sequence (P23458 849-1154): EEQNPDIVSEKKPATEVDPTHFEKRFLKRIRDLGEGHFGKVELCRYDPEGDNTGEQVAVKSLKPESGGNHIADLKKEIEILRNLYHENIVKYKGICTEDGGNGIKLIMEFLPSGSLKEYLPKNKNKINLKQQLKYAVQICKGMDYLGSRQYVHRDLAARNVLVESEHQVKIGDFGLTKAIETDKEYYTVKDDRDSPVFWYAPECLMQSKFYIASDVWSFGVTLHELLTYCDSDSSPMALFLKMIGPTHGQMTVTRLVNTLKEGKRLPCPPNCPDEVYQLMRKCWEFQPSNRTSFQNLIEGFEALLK
T2 sequence (O60674 828-1132): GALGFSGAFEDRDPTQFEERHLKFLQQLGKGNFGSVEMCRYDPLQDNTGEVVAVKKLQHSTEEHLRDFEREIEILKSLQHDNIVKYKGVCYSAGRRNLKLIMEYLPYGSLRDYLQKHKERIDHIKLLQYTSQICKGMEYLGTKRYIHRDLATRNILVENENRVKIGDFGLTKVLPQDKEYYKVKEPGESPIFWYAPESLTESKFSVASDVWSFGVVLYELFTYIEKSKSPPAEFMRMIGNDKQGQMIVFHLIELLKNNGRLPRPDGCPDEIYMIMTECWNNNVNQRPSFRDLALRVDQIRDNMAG

Row | IC50 [1] [nM] | IC50 [2] [nM] | IC50 [3] [nM] | IC50 (TYK2) [nM] | ALK % of inhibition at a concentration of 500 nM or 1 mM [4] [%] | SMILES
1 | 9 | 31 | 124 | 46 | 49 | O=C(Nc1ccc2c(c1)CCC2)Nc1ccc2cc1CCc1cccc(c1)Nc1ncc(Cl)c(n1)N2 [Example B103, N-[6-Chloro-2,4,8,22-tetraazatetracyclo[14.3.1.1(3,7).1(9,13)]docosa-1(20), 3(22),4,6,9(21),10,12,16,18-nonaen-12-yl]-N′-(2,3-dihydro-1H-inden-5-yl)urea trifluoroacetate]
2 | 4.9 | 11 | 81 | 26 | 55 | CC(C)c1ccccc1NC(=O)Nc1ccc2cc1CCc1cccc(c1)Nc1ncc(Cl)c(n1)N2 [Example B104, N-[6-Chloro-2,4,8,22-tetraazatetracyclo[14.3.1.1(3,7).1(9,13)]docosa-1(20), 3(22),4,6,9(21),10,12,16,18-nonaen-12-yl]-N′-(2-isopropylphenyl)urea trifluoroacetate]
3 | 3.9 | 10 | 43 | 13 | 52 | CCCc1ccccc1NC(=O)Nc1ccc2cc1CCc1cccc(c1)Nc1ncc(Cl)c(n1)N2 [Example B105, N-[6-Chloro-2,4,8,22-tetraazatetracyclo[14.3.1.1(3,7).1(9,13)]docosa-1(20), 3(22),4,6,9(21),10,12,16,18-nonaen-12-yl]-N′-(2-propylphenyl)urea trifluoroacetate]
4 | 4.3 | 9.6 | 90 | 18 | 5.7 | CCOc1ccccc1NC(=O)Nc1ccc2cc1CCc1cccc(c1)Nc1ncc(Cl)c(n1)N2 [Example B106, N-[6-Chloro-2,4,8,22-tetraazatetracyclo[14.3.1.1(3,7).1(9,13)]docosa-1(20), 3(22),4,6,9(21),10,12,16,18-nonaen-12-yl]-N′-(2-ethoxyphenyl)urea trifluoroacetate]
5 | 0.62 | 2.3 | 16 | 6.8 | 9.3 | CSc1ccccc1NC(=O)Nc1ccc2cc1CCc1cccc(c1)Nc1ncc(Cl)c(n1)N2 [Example B107, N-[6-Chloro-2,4,8,22-tetraazatetracyclo[14.3.1.1(3,7).1(9,13)]docosa-1(20), 3(22),4,6,9(21),10,12,16,18-nonaen-12-yl]-N′-[2-(methylthio)phenyl]urea trifluoroacetate]
6 | 1.6 | 4.6 | 23 | 2.1 | 21 | O=C(Nc1ccccc1CCl)Nc1ccc2cc1CCc1cccc(c1)Nc1ncc(Cl)c(n1)N2 [Example B108, N-[2-(Chloromethyl)phenyl]-N′-[6-chloro-2,4,8,22-tetraazatetracyclo[14.3.1.1(3,7).1(9,13)]docosa-1(20),3(22),4,6,9(21),10,12,16,18-nonaen-12-yl]urea trifluoroacetate]
7 | 9.6 | 56 | 261 | 72 | 0 | O=C(Nc1ccc2cc1CCc1cccc(c1)Nc1ncc(Cl)c(n1)N2)Nc1cccc2c1CCCC2 [Example B109, N-[6-Chloro-2,4,8,22-tetraazatetracyclo[14.3.1.1(3,7).1(9,13)]docosa-1(20),3(22),4,6,9(21),10,12,16,18-nonaen-12-yl]-N′-(5,6,7,8-tetrahydronaphthalen-1-yl)urea trifluoroacetate]
8 | 4.3 | 5.2 | 92 | 15 | 7.1 | CC(C)(C)c1ccccc1NC(=O)Nc1ccc2cc1CCc1cccc(c1)Nc1ncc(Cl)c(n1)N2 [Example B110, N-(2-tert-Butylphenyl)-N′-[6-chloro-2,4,8,22-tetraazatetracyclo[14.3.1.1(3,7).1(9,13)]docosa-1(20),3(22),4,6,9(21),10,12,16,18-nonaen-12-yl]urea trifluoroacetate]
9 | 3.7 | 6 | 21 | 5 | 14 | O=C(Nc1ccc2cc1CCc1cccc(c1)Nc1ncc(Cl)c(n1)N2)Nc1ccccc1C(F)(F)F [Example B111, N-[6-Chloro-2,4,8,22-tetraazatetracyclo[14.3.1.1(3,7).1(9,13)]docosa-1(20), 3(22),4,6,9(21),10,12,16,18-nonaen-12-yl]-N′-[2-(trifluoromethyl)phenyl]urea trifluoroacetate]
10 | 11 | 34 | 165 | 33 | 3.3 | O=C(Nc1cccc(C(F)(F)F)c1)Nc1ccc2cc1CCc1cccc(c1)Nc1ncc(Cl)c(n1)N2 [Example B112, N-[6-Chloro-2,4,8,22-tetraazatetracyclo[14.3.1.1(3,7).1(9,13)]docosa-1(20), 3(22),4,6,9(21),10,12,16,18-nonaen-12-yl]-N′-[3-(trifluoromethyl)phenyl]urea trifluoroacetate]
11 | 4.7 | 7.4 | 48 | 17 | 9.5 | O=C(Nc1ccc2cc1CCc1cccc(c1)Nc1ncc(Cl)c(n1)N2)Nc1c(Cl)cccc1Cl [Example B113, N-[6-Chloro-2,4,8,22-tetraazatetracyclo[14.3.1.1(3,7).1(9,13)]docosa-1(20), 3(22),4,6,9(21),10,12,16,18-nonaen-12-yl]-N′-(2,6-dichlorophenyl)urea trifluoroacetate]
12 | 0.81 | 2.9 | 13 | 5.4 | 24 | CNC(=O)Nc1ccc2cc1CCc1cccc(c1)Nc1ncc(Cl)c(n1)N2 [Example B114, N-[6-Chloro-2,4,8,22-tetraazatetracyclo[14.3.1.1(3,7).1(9,13)]docosa-1(20), 3(22),4,6,9(21),10,12,16,18-nonaen-12-yl]-N′-methylurea trifluoroacetate]
13 | 1.4 | 5.2 | 29 | 8.8 | 23 | CCNC(=O)Nc1ccc2cc1CCc1cccc(c1)Nc1ncc(Cl)c(n1)N2 [Example B115, N-[6-Chloro-2,4,8,22-tetraazatetracyclo[14.3.1.1(3,7).1(9,13)]docosa-1(20), 3(22),4,6,9(21),10,12,16,18-nonaen-12-yl]-N′-ethylurea trifluoroacetate]
14 | 3.1 | 3.5 | 26 | 10 | 20 | CC(C)NC(=O)Nc1ccc2cc1CCc1cccc(c1)Nc1ncc(Cl)c(n1)N2 [Example B116, N-[6-Chloro-2,4,8,22-tetraazatetracyclo[14.3.1.1(3,7).1(9,13)]docosa-1(20), 3(22),4,6,9(21),10,12,16,18-nonaen-12-yl]-N′-isopropylurea trifluoroacetate]
